{"source": "patent US6271384A", "about": "“Self-assembled taxo-diterpenoid nanostructures” (The Scripps Research Institute, priority 1998, dated 2001)", "key": {"tubulin": {"system": "tubulin", "test": "Microtubule (tubulin) polymerization-depolymerization measurements", "format": "biochemical", "conditions": "for suppression of calcium chloride promoted depolymerization: 10^-6 M, CaCl2 0.25 mM, 1.0 mM GTP, 37° C.", "protocol": "Tubulin polymerization-depolymerization measurements are illustrate in FIG. 3. Negative controls are shown with triangles; positive taxol controls are shown with diamonds; and taxol-2'-MPT, i.e., compound 2 is shown with dots.\nMore particularly, measurement were performed in 96 well plates at 37° C. following the protocol of R. Merlock and W. Wrasidlo (Analytical Biochemistry 1993, in press). Calcium chloride addition is indicated by the arrow. In each case, 1.0 mM GTP was used to promote the initial polymerization of tubulin. Negative control employed tubulin (1.0 mg/mL) alone, CaCl2 (0.25 mM) added after 20 minutes. Positive taxol control employed tubulin (1.0 mg/mL) with taxol (10^-6 M) and CaCl2 (0.25 mM) added after 20 minutes. The experimental taxol-2'-MPTemployed tubulin (1.0 mg/mL) with taxol-2'-MPT (10^-6) and CaCl2 (0.25 mM) added after 20 minutes. Turbidity was measured as optical density at 340 nm using a microplate reader (Molecular Devices Thermomax)."}, "human leukemia": {"system": "human leukemia", "test": "Cytotoxicity, human leukemia (XTT)", "conditions": "72 hours", "quoted_text": "(§2) More particularly, cells were plated on 96 well plates with the following controls: no cells and toxic control (1×10^-3 M SDS). The drug was added to the first set of wells and diluted via standard dilution method from the stock. Plates were incubated at 37° C., 5% CO2 in sterile air in an humidified incubator for 72 hours. An aliquot of 50 μL of a solution of 2,3-bis(methoxy-4-nitro-5-sulfophenyl)-5-[(phenylamino)carbonyl]-1H-tetrazolium hydroxide (XTT), 1 mg mL^-1, in phosphate buffered saline (PBS, 100 mM) was added to the wells. In the presence of viable cells, this colorless clear media is enzymatically altered to give a pink coloration. The plates were read at 450 nm using a plate reader. Percentage cytotoxicity was calculated using the formula: %C=1-(OD toxin)(OD growth control)^-1 (100)."}, "cervical carcinoma": {"system": "cervical carcinoma", "test": "Cytotoxicity, cervical carcinoma (XTT)", "conditions": "72 hours", "quoted_text": "as §2"}, "metastatic melanoma": {"system": "metastatic melanoma", "test": "Cytotoxicity, metastatic melanoma (XTT)", "conditions": "72 hours", "quoted_text": "as §2"}, "[1]": {"test": "Stability measurements of taxol-2'-MPT by HPLC (solid state and aqueous media)", "format": "physicochemical", "protocol": "Due to a difference in retention time using our standard HPLC conditions (see FIG. 1) and differing ultraviolet absorption maxima (l280 /l254 =1.6 for 2 and 0.3 for 1), the stability of 2 was easily assayed by HPLC (FIG. 1). […] In phosphate buffered saline (PBS) or ammonium acetate-phosphate buffer systems of pH 6.0 to 7.3, 2 is stable at 25° C. for over 21 days. Taxol-2'-MPT (2) is, however, unstable in 5% HCl (pH 1.1) and brine.\nUnder these conditions 20% of total is recovered. More particularly, Taxol-2'-MPT (2) was dissolved in the aqueous system with the aid of sonication for five minutes. Aliquots were then removed at the times shown and partitioned into methylene chloride to quench the reaction. Samples were then analyzed using a Waters Maxima HPLC instrument equipped with an autoinjector (3.9×300 mm C18 column equipped with a precolumn. The flow rate was 1.5 mL/minute. The eluent gradient A-B extended over 30 minutes. \"A\" was 80% 80 mM ammonium acetate, pH 6.0. \"B\" was 100% methanol. An ultraviolet diode array detector was employed. The ratio of compound 2 (Rf 16.2 min.) to taxol (compound 1, Rf 16.8 min.) remaining was determined from the relative areas of the peaks after normalization with previously determined calibration curves."}, "[2]": {"test": "Kinetics of taxol release / breakdown in plasma (HPLC)", "format": "in vitro ADME, human", "conditions": "methylene chloride extraction, 25° C."}, "[3]": {"protocol": "The solubility and partition coefficient data for 2 and taxol were determined using an HPLC method.\nSolubility was found by forming a solution in water with the aid of sonication for five minutes, centrifugation of the samples, and injection of the supernatant. The values reported were normalized using calibration curves constructed for both compounds by preparing known concentrations in the range 1×10^-6 to 1×10^-3 M in methylene chloride and subjecting to HPLC analysis under the same conditions. […] Partition coefficients were determined by dissolving the compound in the organic phase, shaking the resulting solution with water for ten minutes, and analyzing each phase by HPLC as above."}, "[4]": {"test": "Self-assembly: optical density at 340 nm, light scattering and TEM", "format": "physicochemical", "description": "Transmission electron microscopy (TEM) confirmed the presence of supramolecular structures in these solutions. […] It is likely that the long term stability of these solutions is due, at least in part, to stabilization provided by this structured environment."}, "serum protein": {"system": "serum protein", "test": "Displacement of the MPT group by serum protein and dialysis of the protein:taxol intermediate", "description": "(§1) However, the release of taxol from taxol-2'-MPT can also be catalyzed by serum protein and by proteins having nucleophilic groups. […] Dialysis of the protein:taxol intermediate indicates a dissociation period of hours or days. Displacement of the MPT group by serum proteins seems to be specific for such serum proteins. […] The precise nature of the bonding between the protein and taxol has not been characterized. Scheme 2 illustrates alternative pathways for MPT release."}, "immunoglobulins": {"system": "immunoglobulins", "test": "Displacement of the MPT group by immunoglobulins", "description": "as §1"}, "serum albumen": {"system": "serum albumen", "test": "Displacement of the MPT group by serum albumen", "description": "as §1"}, "non-serum proteins": {"system": "non-serum proteins", "test": "Displacement of the MPT group by non-serum proteins", "conditions": "tested non-serum proteins", "description": "as §1"}, "[5]": {"system": "leukemia, ovarian, lung, and breast carcinoma cells", "test": "Cytotoxicity against a cell line panel (XTT)", "quoted_text": "More particularly, cells were plated on 96 well plates with the following controls: no cells and toxic control (1×10^-3 M SDS). The drug was added to the first set of wells and diluted via standard dilution method from the stock. Plates were incubated at 37° C., 5% CO2 in sterile air in an humidified incubator for 72 hours. An aliquot of 50 μL of a solution of 2,3-bis(methoxy-4-nitro-5-sulfophenyl)-5-[(phenylamino)carbonyl]-1H-tetrazolium hydroxide (XTT), 1 mg mL^-1, in phosphate buffered saline (PBS, 100 mM) was added to the wells. In the presence of viable cells, this colorless clear media is enzymatically altered to give a pink coloration. […] Percentage cytotoxicity was calculated using the formula: %C=1-(OD toxin)(OD growth control)^-1 (100)."}, "[6]": {"system": "A549 non-small cell lung adenocarcinoma xenograft", "test": "Efficacy in lung tumor xenograft nude mouse model", "quoted_text": "The tumor model was generated from an ATCC A549 non-small cell lung adenocarcinoma cell line that was maintained under the standard cell proliferation conditions (37° C., 5% carbon dioxide in sterile air). Hemocytometer counted cells suspended in Hanks medium (Gibco, Grand Island, N.Y.) were implanted S.C."}}, "note": "Counter-ions that a name gives are not always drawn."}
{"smiles": "CC(=O)O[C@H]1C(=O)[C@@]2(C)[C@H]([C@H](OC(=O)c3ccccc3)[C@]3(O)C[C@H](OC(=O)[C@H](O)[C@@H](NC(=O)c4ccccc4)c4ccccc4)C(C)=C1C3(C)C)[C@]1(OC(C)=O)CO[C@@H]1C[C@@H]2O", "note": "[Taxol, taxol]", "values": [{"measurement": "suppression of calcium chloride promoted depolymerization", "setting": "tubulin", "result": "suppressed by taxol"}, {"measurement": "cytotoxicity level, human leukemia", "setting": "human leukemia", "result": "Extremely high cytotoxicity levels"}, {"measurement": "cytotoxicity level, cervical carcinoma", "setting": "cervical carcinoma", "result": "Extremely high cytotoxicity levels"}, {"measurement": "cytotoxicity level, metastatic melanoma", "setting": "metastatic melanoma", "result": "Extremely high cytotoxicity levels"}]}
{"smiles": "CC(=O)O[C@H]1C(=O)[C@@]2(C)[C@H]([C@H](OC(=O)c3ccccc3)[C@]3(O)C[C@H](OC(=O)[C@H](Oc4cccc[n+]4C)[C@@H](NC(=O)c4ccccc4)c4ccccc4)C(C)=C1C3(C)C)[C@]1(OC(C)=O)CO[C@@H]1C[C@@H]2O", "note": "[Compound 2, Taxol-2'-MPT (methylpyridinium tosylate)]", "values": [{"measurement": "stability in 5% HCl", "setting": "[1]; 5% HCl (pH 1.1)", "result": "unstable"}, {"measurement": "stability in brine", "setting": "[1]; brine", "result": "unstable"}, {"measurement": "stability in most aqueous media", "setting": "[1]; most aqueous media", "result": "remarkably stable compound in most aqueous media"}, {"measurement": "stability in phosphate buffered saline or ammonium acetate-phosphate buffer", "setting": "[1]; pH 6.0 to 7.3, 25° C.", "result": "over 21 days"}, {"measurement": "stability in aqueous media at physiological pH and ion strength", "setting": "[1]; physiological pH and ion strength", "result": "essentially completely stable"}, {"measurement": "taxol release in aqueous solutions", "setting": "[1]; sterile water, pH 6.2 phosphate buffered saline or 5% dextrose, 25° C., 11 minutes", "result": "no taxol release is observed over a period of 11 minutes"}, {"measurement": "time to complete conversion of 2 into taxol in plasma", "setting": "[2]", "result": "≤ 10", "unit": "min"}, {"measurement": "degradation during solubility and partition studies", "setting": "[3]", "result": "No degradation"}, {"measurement": "solubility in aqueous systems relative to clinically relevant dosages", "setting": "[3]", "result": "higher than the clinically relevant dosages (3 to 30 mM)"}, {"measurement": "water solubility relative to taxol", "setting": "[3]", "result": "significantly more soluble in water than the parent taxol"}, {"measurement": "critical concentration (exponential increase in optical density; critical aggregation concentration)", "setting": "[4]; OD at 340 nm", "result": 400, "unit": "µM"}, {"measurement": "diameter of helical fibrillar structures", "setting": "[4]; TEM", "result": "ca. 80 Å"}, {"measurement": "helical twist", "setting": "[4]; TEM", "result": "about 7"}, {"measurement": "length of helical fibrillar structures", "setting": "[4]; TEM", "result": "up to 800 Å"}, {"measurement": "concentration above which buffered solutions exhibit haze and diffuse scattering", "setting": "[4]; buffered solutions", "result": "greater than 1×10^-3 M"}, {"measurement": "appearance of water solutions", "setting": "[4]; water, all concentrations examined", "result": "optically clear at all concentrations examined"}, {"measurement": "suppression of calcium chloride promoted depolymerization", "setting": "tubulin", "result": "not by taxol-2'-MPT"}, {"measurement": "conversion to taxol in assay buffer", "setting": "tubulin; buffered aqueous environment of this assay", "result": "not converted to taxol"}, {"measurement": "microtubule polymerization-depolymerization profile", "setting": "tubulin; compared with GTP-saline controls and taxol", "result": "very similar to GTP-saline controls and drastically different from taxol"}, {"measurement": "binding to tubulin", "setting": "tubulin; inferred from polymerization assay", "result": "does not appear to bind to tubulin in the manner of taxol"}, {"measurement": "displacement of MPT group / formation of protein:taxol intermediate", "setting": "serum protein; contacted with serum protein", "result": "observed to displace its MPT group and form a protein:taxol intermediate"}, {"measurement": "dissociation period of protein:taxol intermediate", "setting": "serum protein; dialysis", "result": "hours or days"}, {"measurement": "displacement of MPT group by immunoglobulins", "setting": "immunoglobulins", "result": "particularly effective"}, {"measurement": "displacement of MPT group by serum albumen", "setting": "serum albumen", "result": "particularly effective"}, {"measurement": "displacement of MPT group by non-serum proteins", "setting": "non-serum proteins", "result": "seemed to lack this activity"}, {"measurement": "cytotoxicity (discussion statement)", "setting": "[5]", "result": "lack of cytotoxicity"}, {"measurement": "differential cytotoxicity profile", "setting": "[5]; 2 compared with taxol", "result": "similar, although some differences were noted"}, {"measurement": "control of tumor growth", "setting": "[6]; I.P. day 1,3, and 7, 2 23.9 mg/kg, taxol 18.0 mg/kg, preliminary data", "result": "at least comparable to that of taxol"}, {"measurement": "conversion to taxol in vivo", "setting": "[6]; inferred from xenograft results", "result": "converted rapidly to taxol in vivo"}]}
